Values of other authors, collected in US10201537B2 (INFLAMMATORY RESPONSE RESEARCH, INC., priority 2013, dated 2019).
Read-outs that look alike come from different tables or passages of the source.

Key:
[1] = in vivo
[2] = tested on: histamine induced wheal and flare; details: levocetirizine 5 mg per day vs fexofenadine 180 mg per day
[3] = for time to steady state level: montelukast, oral
[4] = warfarin, theophylline, digoxin, terfenadine, oral contraceptives, prednisone
influenza = details: human, in vivo
[5] = tested on: granulocyte and macrophage proliferation; details: in vivo

Molecule: O=C(O)COCCN1CCN([C@H](c2ccccc2)c2ccc(Cl)cc2)CC1 [Levocetirizine]
- time to steady state level [1]: 40 h
- inflammatory mediators IL-4, IL-6, and IL-8 (IL-4, IL-6, and IL-8): decrease inflammatory mediators
- principal side effect at higher doses (humans; higher doses): Sedation
- doses safely administered in humans (humans; in vivo): up to 30 mg/day
- eosinophil migration (eosinophil migration): decrease eosinophil migration
- effectiveness versus fexofenadine [2]: more effective than fexofenadine

Molecule: CC(C)(O)c1ccccc1CC[C@@H](SCC1(CC(=O)O)CC1)c1cccc(/C=C/c2ccc3ccc(Cl)cc3n2)c1 [Montelukast]
- doses without clinically important adverse experiences (adult patients; adult patients, 22 weeks): up to 200 mg/day
- doses without clinically important adverse experiences (adult patients; short-term studies, approximately one week): up to 900 mg/day
- plasma concentration area under the curve profile ([3]; IV montelukast 7 mg vs 10 mg oral tablet): comparable to the approved 10 mg oral montelukast tablet
- absorption ([3]; in vivo): rapidly absorbed
- linear pharmacokinetics to dose ([3]; in vivo): ≤ 50 mg
- time to peak plasma concentration ([3]; in vivo): 3 to 4 h
- time to steady state level [3]: less than two days
- time to steady state level ([3]; listed as montelukast): within two days
- effect of a standard meal on oral bioavailability and Cmax ([3]; standard meal): not affected by a standard meal
- drug interactions [4]: no drug interactions

Molecule: CCOC(=O)C1=C[C@@H](OC(CC)CC)[C@H](NC(C)=O)[C@@H](N)C1 [oseltamivir]
- influenza related lower respiratory tract complications (influenza): did not appear to reduce influenza related lower respiratory tract complications

B1: filgrastim (protein, chains of the INN, looked up)
chain: MTPLGPASSLPQSFLLKCLEQVRKIQGDGAALQEKLCATYKLCHPEELVLLGHSLGIPWAPLSSCPSQALQLAGCLSQLHSGLFLYQGLLQALEGISPELGPTLDTLQLDVADFATTIWQQMEELGMAPALQPTQGAMPAFASAFQRRAGGVLVASHLQSFLEVSYRVLRHLAQP
modifications: N-terminal methionine, non-glycosylated
notes: protein stimulating granulocyte and macrophage proliferation and differentiation
- serious reactions [5]: splenic rupture, ARDS, thrombocytopenia, cutaneous vasculitis, and hemorrhage
